# Laboratory results: patent US9133235B2, “Macrocyclic antagonists of the motilin receptor for treatment of gastrointestinal dysmotility disorders” (Ocera Therapeutics, Inc., priority 2006, dated 2015)
# Read-outs that look alike come from different tables or passages of the source.
# How the values were obtained:
# [1] = tested on: strips of rabbit duodenum; test: Rabbit duodenum contractility assay; conditions: pA2 from Schild plot, motilin dose response after 15 minute incubation
# Experimental: D. Rabbit Duodenum Contractility Assay
# Evaluation of compounds of the invention for ex vivo activity was conducted on strips of rabbit duodenum according to literature methods. (Van Assche, G.; Depoortere, I.; Thijs, T.; Janssens, J. J.; Peeters, T. L. Eur. J. Pharmacol. 1997, 337, 267-274; Matthijs, G.; Peeters, T. L.; Vantrappen, G. Naunyn-Schmiedeberg's Arch. Pharmacol. 1989, 339, 332-339.) Related methods can also be employed for this type of study. (Tomomasa, T.; Yagi, H.; Kimura, S.; Snape, W. J., Jr.; Hyman, P. E. Pediatric Res. 1989, 26, 458-461; Takanishi, H.; Yogo, K.; Ozaki, M.; Akima, M.; Koga, H.; Nabata, H. J. Pharm. Exp. Ther. 1995, 273, 624-628.)
# Duodenal segments were vertically suspended in organ chambers of 10 mL filled with Krebs buffer and connected to an isotonic force transducer, with a preload of 1 g. After a stabilization period, the muscle strips were challenged with 10^−4 M acetylcholine and washed. This was repeated until a stable maximal contraction was obtained (2-3 times), with an interval of at least 20 minutes.
# After a stable base line was reached, test compounds were added to the bath. After a 15 minute incubation, a dose response to motilin was recorded by adding logarithmically increasing concentrations of motilin to the bath (final concentration 10^−9 to 10^−6 M). A blank experiment (no test compound present) was also performed. At the end of the dose response curve, a supramaximal dose of acetylcholine (10^−4 M) was given and this response was used as a reference (100% contraction).
# The results of experiments at different concentrations of test compound were combined and analyzed to derive the pA2 value from the Schild plot.
# human motilin receptor = human motilin receptor (Homo sapiens, UniProt O43193); test: Competitive radioligand binding assay (motilin receptor); set-up: purchased PerkinElmer (SignalScreen) 6110544; host or cells: CHO cells, stably transfected; membranes
# Outline: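 Membranes from CHO cells stably expressing human motilin receptor were incubated 2 h at room temperature with [125I]-motilin (0.04-0.06 nM final) and compound (0.0050–10 μM) in Tris-HCl pH 7.4, MgCl2, EDTA, 0.1% BSA. Filter-bound counts were measured; 1 μM motilin defined non-specific binding; variable-slope non-linear regression.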
# [2] = [125I]-motilin competition, membranes of CHO cells with human motilin receptor, read-out: Ki
# Sequence of human motilin receptor (O43193 whole entry): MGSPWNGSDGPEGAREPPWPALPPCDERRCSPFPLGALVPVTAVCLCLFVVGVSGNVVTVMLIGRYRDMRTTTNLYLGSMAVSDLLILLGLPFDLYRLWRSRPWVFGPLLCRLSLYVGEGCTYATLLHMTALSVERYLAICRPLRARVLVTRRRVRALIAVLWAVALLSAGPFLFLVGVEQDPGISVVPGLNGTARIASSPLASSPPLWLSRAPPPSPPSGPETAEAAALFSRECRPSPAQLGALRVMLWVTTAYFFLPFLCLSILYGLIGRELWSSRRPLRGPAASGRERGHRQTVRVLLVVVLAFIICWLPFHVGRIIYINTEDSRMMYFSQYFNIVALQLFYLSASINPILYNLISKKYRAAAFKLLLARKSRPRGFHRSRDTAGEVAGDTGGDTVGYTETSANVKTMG
Structure (SMILES),Contractile Potency (pA2) [1],"Ki (human motilin receptor; Table 7, read-out: Binding Ki)",Ki (human motilin receptor; [2])
CCC[C@@H]1NC(=O)[C@@H](C(C)C)NC(=O)[C@@H](Cc2cccc(F)c2)N[C@@H](C)COc2ccccc2CCCNC1=O [Compound 551],8.29,≤ 10 nM,≤ 10 nM
CCC[C@@H]1NC(=O)[C@@H](C(C)C)NC(=O)[C@@H](Cc2ccc(O)c(Cl)c2)N[C@@H](C)COc2ccccc2CCCNC1=O [Compound 552],,,≤ 10 nM
CC(C)[C@H]1NC(=O)[C@@H](Cc2cccc(C(F)(F)F)c2)NCCOc2ccccc2CCCNC(=O)[C@H](CN(C)C)NC1=O [Compound 502],7.92,≤ 10 nM,
CCC[C@@H]1NC(=O)[C@@H](C(C)C)NC(=O)[C@@H](Cc2ccc(O)c(C(C)(C)C)c2)NCCOc2ccccc2CCCNC1=O [Compound 553],8.71,≤ 10 nM,≤ 10 nM
